Reference: ChEMBL document CHEMBL5608141, “Identification of compartment-specific drug sensitivities in CRC organoid-stroma co-cultures” (2024)

Key:
Format in all cases: functional, Homo sapiens
Set-up in all cases: dose or concentration left out as unconfirmed
Colon cancer organoid [1] = assay: Identification of compartment-specific drug sensitivities in O06 CRC organoid-stroma F06 CAF co-cultures. Organoid is transduced with Lucferase2-P2A-EGFP lentivirus, fibroblast with Renilla-dsRed lentivirus. Dual-Glo Luciferase assay is used to report viability data.
Colon cancer organoid [2] = assay: Identification of compartment-specific drug sensitivities in O14 CRC organoid-stroma F14 CAF co-cultures. Organoid is transduced with Lucferase2-P2A-EGFP lentivirus, fibroblast with Renilla-dsRed lentivirus. Dual-Glo Luciferase assay is used to report viability data.
Colon cancer organoid [3] = assay: Identification of compartment-specific drug sensitivities in O20 CRC organoid-stroma F20 CAF co-cultures. Organoid is transduced with Lucferase2-P2A-EGFP lentivirus, fibroblast with Renilla-dsRed lentivirus. Dual-Glo Luciferase assay is used to report viability data.
[4] = Transduced with Lucferase2-P2A-EGFP lentivirus
[5] = Transduced with Renilla-dsRed lentivirus

| Structure (SMILES) | Cell Viability (Colon cancer organoid [1]; [4]) | Cell Viability (Colon cancer organoid [1]; [5]) | Cell Viability (Colon cancer organoid [2]; [4]) | Cell Viability (Colon cancer organoid [2]; [5]) | Cell Viability (Colon cancer organoid [3]; [4]) | Cell Viability (Colon cancer organoid [3]; [5]) |
| --- | --- | --- | --- | --- | --- | --- |
| CSc1cccnc1N1CCN(Cc2nc3ccccc3[nH]2)CC1 [A-769] | 75.6066% | 105.586% | 118.57% | 113.172% | 125.432% | 98.3481% |
| O=C(N[C@H]1CCCCC/C=C\C2C[C@@]2(C(=O)O)NC(=O)[C@@H]2C[C@@H](Oc3ccncc3)CN2C1=O)OC1CCCC1 (some centres undefined) [BI 1675] | 164.286% | 81.7525% | 118.741% | 112.641% | 103.036% | 110.731% |
| CO[C@@H](C)c1c(Nc2ccc([C@H](N(C)C(=O)C3CCS(=O)(=O)CC3)C(F)(F)F)cc2)cnc2cc(Cl)nn12 [NVS-MALT1] | 54.3511% | 83.5282% | 78.8073% | 82.3583% | 88.0389% | 98.697% |
| COc1ccc2c(O[C@@H]3C[C@H]4C(=O)N[C@]5(C(=O)O)CC5/C=C\CCCCC[C@H](NC(=O)OC5CCCC5)C(=O)N4C3)cc(-c3csc(NC(=O)C(C)C)n3)nc2c1C (some centres undefined) [BI 1230] | 110.189% | 125.746% | 146.11% | 113.81% | 95.5192% | 162.279% |
| CN(C)C(=O)Cn1cc(-c2ccc(-c3cncc4ccccc34)cc2)cn1 | 83.3121% | 47.4852% | 88.4928% | 18.4119% | 98.3492% | 25.8647% |
| O=C(NCc1ccccc1)c1ccc(S(=O)(=O)NCc2ccccc2)cc1 | 32.2843% | 131.443% | 108.82% | 110.313% | 89.1581% | 96.8328% |
| CN(C(=O)c1ccccc1)c1cc(N(C)c2ccc3c(c2)CCc2ccc(C(=O)NCCN4CCOCC4)cc2C3=O)ccc1F [FM-743] | 67.0526% | 69.6878% | 122.056% | 99.7372% | 87.6379% | 153.202% |
| COc1ccc(Cn2ccc3ccc(C(=O)NO)cc32)cc1 | 111.578% | 129.424% | 104.237% | 105.297% | 177.336% | 111.53% |
| CO[C@@H](C)c1c(Nc2ccc([C@@H](N(C)C(=O)C3CCS(=O)(=O)CC3)C(F)(F)F)cc2)cnc2cc(Cl)nn12 [NVS-MALT1-C] | 50.6957% | 73.6522% | 71.9282% | 88.3744% | 83.7008% | 108.215% |
| CC(C)C(=O)Nc1n[nH]c2cc(-c3cccc(NS(=O)(=O)C4CC4)c3)ccc12 | 78.2505% | 111.722% | 122.353% | 104.553% | 85.5363% | 102.387% |
| CCc1ccccc1C(=O)Nc1n[nH]c2c(C)c(F)c(C3C(C#N)=C(C)N(C)C(C)=C3C#N)cc12 [BAY-3827] | 43.7855% | 108.902% | 97.9341% | 94.3175% | 74.4041% | 157.673% |
| CNCCN1CCC(OCc2ccccc2)CC1 | 118.085% | 144.179% | 40.9856% | 114.707% | 15.2261% | 211.667% |
| COc1cc(Nc2ncc3c(n2)-c2ccc(Cl)cc2C(c2c(F)cccc2OC)=NC3)ccc1C(=O)O [ALISERTIB] | 7.435% | 169.322% | 16.3683% | 117.657% | 6.089% | 322.747% |
| Cc1noc([C@H]2C[C@@H](c3ccc(C(F)(F)F)cc3)CN(C(=O)N3CCS(=O)(=O)C3)C2)n1 [BAY-448] | 64.3289% | 114.596% | 114.601% | 94.3368% | 115.252% | 84.5218% |
| CNCCN1CCC(c2cc(CN(C)C(=O)c3cccc(Oc4ccccc4)c3)ccn2)CC1 | 83.6812% | 129.007% | 146.315% | 111.036% | 67.5507% | 133.473% |
| Cc1cc(F)c(C(=O)Nc2cccc(-c3nncn3C(C)C)n2)cc1-n1cnc(C2CC2)c1 [SELONSERTIB] | 89.6649% | 105.018% | 143.918% | 74.3836% | 141.758% | 89.2485% |
| O=C(/C=C/N1C[C@H]2C[C@@H]1CN2c1ccccn1)c1ccccc1O | 122.112% | 121.159% | 104.919% | 81.7789% | 99.3831% | 109.392% |
| COc1cc(Nc2nc(C)cc(-c3cnn4nc(OC)ccc34)n2)cc(C(F)(F)F)c1 | 17.5131% | 98.9895% | 120.94% | 74.993% | 136.021% | 99.6244% |
| CN(C)c1ncnc(-c2ccc3nc(Nc4cc(CN5CCN(C(=O)CC(F)(F)F)CC5)ccn4)[nH]c3c2)c1Cl [BAY-440] | 110.52% | 104.43% | 161.186% | 109.54% | 123.006% | 109.622% |
| COc1cc2c(cc1-c1c(C)noc1C)ncc1[nH]c(=O)n([C@H](C)c3ccccn3)c12 | 43.5488% | 325.273% | 55.7493% | 184.963% | 26.1265% | 172.215% |
| CN1CCN(Cc2ccc(Nc3ncc(Cl)c(Nc4ccccc4S(=O)(=O)N(C)C)n3)cc2)CC1 [DUBERMATINIB] | 0.5937% | 0.7151% | 1% | 1.414% | 1.051% | 16.1981% |
| Cn1c(C2(NC(=O)c3ccc(NCC4CCCCC4)nc3)CCC2)nc2ccc(/C=C/C(=O)O)cc21 [BI 7656] | 95.6503% | 130.646% | 93.219% | 83.8542% | 93.1126% | 134.723% |
| Cc1ccc2[nH]c(CNCCCc3ccncc3)cc(=O)c2c1 [UCSF924NC] | 92.2965% | 82.507% | 107.168% | 100.112% | 121.808% | 109.302% |
| CC(C)(O)[C@H](F)CN1Cc2cc(NC(=O)c3cnn4cccnc34)c(N3CCOCC3)cc2C1=O | 120.796% | 89.8431% | 105.194% | 83.4987% | 123.644% | 88.3121% |
